Experimental data from paper PMC3646888 (PLoS ONE, 2013).

Target: T1, CYP1A2r (Rattus norvegicus, UniProt P04799)
T1 sequence (P04799 1-513): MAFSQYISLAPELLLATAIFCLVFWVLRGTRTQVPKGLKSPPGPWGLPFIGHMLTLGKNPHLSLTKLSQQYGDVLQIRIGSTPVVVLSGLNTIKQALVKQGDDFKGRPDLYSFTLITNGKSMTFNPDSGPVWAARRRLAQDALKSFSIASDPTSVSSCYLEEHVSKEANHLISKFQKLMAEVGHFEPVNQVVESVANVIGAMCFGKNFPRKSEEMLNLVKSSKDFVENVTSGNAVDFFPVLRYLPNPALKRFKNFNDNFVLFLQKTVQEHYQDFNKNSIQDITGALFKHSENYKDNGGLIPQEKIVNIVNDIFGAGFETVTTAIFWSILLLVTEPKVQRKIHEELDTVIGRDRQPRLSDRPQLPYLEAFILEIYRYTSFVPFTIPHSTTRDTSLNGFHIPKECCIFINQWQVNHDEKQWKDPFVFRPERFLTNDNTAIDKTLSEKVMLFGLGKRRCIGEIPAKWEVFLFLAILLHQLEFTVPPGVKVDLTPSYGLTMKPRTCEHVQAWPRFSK
Assay: Fluorescence-based CYP assay, recombinant CYP1A2r, substrate EFC
Assay type: in vitro ADME
Conditions: concentrations up to 80 µM
Procedure: These assays were performed by methods similar to those described by VanAlstine and Hough, Stresser et al., Wulff et al., Henderson et al., and Crespi et al., with minor modifications. All incubations were performed in a final volume of 200 µL of 50 mM potassium phosphate buffer at pH 7.4 containing 1% acetonitrile. CYP inhibitor studies were performed according to the parameters of Table 1. Substrate concentrations were chosen to be near known Km values. As described in the references cited, two different NADPH regenerating systems were used depending on the substrates used (Table 1). […] Samples were pre-incubated at 37°C for the designated times, and the reactions were initiated with the addition of a substrate and enzyme mixtures (Table 1). […] For the assays utilizing the “high” regenerating system, enzyme reactions were terminated at the designated time by the addition of 75 µL of 2N NaOH, followed by a 2 h post-incubation at 37°C. Product formation was then measured at the designated wavelengths (Table 1). For the “low” regenerating system assays, blanks and standards were prepared in 0.1 mL buffer without the regenerating system. For the “high” regenerating system assays, blanks and standards containing 0.1 mL of buffer received 75 µL of 2N NaOH following pre-incubation.

Clc1ccc(COC(Cn2ccnc2)c2ccc(Cl)cc2Cl)c(Cl)c1 (stereo not shown) [miconazole]
Inhibition of CYP1A2r (in words): did not inhibit
